Experiments:
IgA heavy chain [1] = test: Ex vivo incubation of mouse faeces at 37° C. for 48 hours, western blot; details: faeces of GF mice inoculated together with 2-mix, 37° C. 48 hours
Protocol: Mouse faecal samples were suspended and diluted 50-fold with phosphate buffered saline (PBS) to which a protease inhibitor cocktail (Roche) was added. Subsequently, the suspended sample was centrifuged at 15,000×g for 10 minutes at 4° C., and the supernatant was subjected to western blot. Mouse pancreatic tissue was rapidly frozen in liquid nitrogen. Proteins were extracted by TRIzol Reagent (Thermo Fisher Scientific K.K.), and the final protein concentration was adjusted to 4 μg/μL. For SDS-PAGE and blotting, Novex (registered trademark) NuPAGE (registered trademark) SDS-PAGE Gel system (Thermo Fisher Scientific K.K.) and iBlotTM 2 Dry Blotting System (Thermo Fisher Scientific K.K.) were used according to the manufacturer's instructions. The antibodies used are as follows. A rabbit anti-mouse PRSS2 antibody (Cosmo Bio Co., Ltd.), a rabbit anti-mouse HSP90 antibody (#4877, Cell Signaling Technology, Inc.), a rabbit anti-human PRSS2 antibody (LS-B15726, LSBio), a rabbit anti-human PRSS1 antibody (LS-331381, LSBio), a rabbit anti-mouse TMPRSS2 antibody (LS-C373022, LSBio, against the sequence of the protease domain), a rabbit anti-6-His antibody ([…]-[…], Bethyl Laboratories, Inc.), a goat anti-mouse IgA a chain antibody (HRP) (ab97235, Abcam plc.), a rat anti-mouse κ chain antibody (HRP) (ab99632, Abcam plc.), a rabbit anti-mouse CELA3b antibody (OACD03205, Aviva Systems Biology Corporation), an anti-rabbit IgG antibody (HRP) (#7074, Cell Signaling Technology, Inc.), and a rabbit anti-mouse Reg3 antibody (51153-[…], Sino Biological, Inc.).

TMPRSS2 = molecular target: T1, TMPRSS2 (Mus musculus, UniProt Q9JIQ8); test: Western blot of faeces of GF mice inoculated with P. clara strain together with 2-mix; format: in vivo
T1 construct: from tissue; host or cells: faeces of gnotobiotic mice
Protocol: (§1) Mouse faecal samples were suspended and diluted 50-fold with phosphate buffered saline (PBS) to which a protease inhibitor cocktail (Roche) was added. Subsequently, the suspended sample was centrifuged at 15,000×g for 10 minutes at 4° C., and the supernatant was subjected to western blot. Mouse pancreatic tissue was rapidly frozen in liquid nitrogen. Proteins were extracted by TRIzol Reagent (Thermo Fisher Scientific K.K.), and the final protein concentration was adjusted to 4 μg/μL. For SDS-PAGE and blotting, Novex (registered trademark) NuPAGE (registered trademark) SDS-PAGE Gel system (Thermo Fisher Scientific K.K.) and iBlot™ 2 Dry Blotting System (Thermo Fisher Scientific K.K.) were used according to the manufacturer's instructions.
(§2) The antibodies used are as follows. […]

IgA heavy chain [2] = test: as above; format: in vivo, mouse; details: compared to Δ00502 or Δ00509
Protocol: as §1, §2

[3] = test system: mouse hepatitis virus (MHV); test: Mouse hepatitis virus (MHV) infection of gnotobiotic mice; format: in vivo; details: with 2-mix
Protocol: MHV-2 was provided by Makoto UJIKE (Nippon Veterinary and Life Science University). Five-week-old GF C57BL/6N male mice were obtained from CLEA Japan, Inc. or Sankyo Labo Service Corporation, and were separately bred in stainless steel isolators. 200 μL of 2-mix (B. uniformis and P. merdae)+P. clara (WT) or 2-mix+P. clara (Δ00502) was orally administered to the GF mice. Two weeks after inoculation, the mice were orally infected with 4.5×10^6 PFU of MHV-2, and the survival rate was observed every day for 10 days.
The liver and brain were collected on 4 or 5 days after infection to measure virus titers, and homogenization was performed with DNA/RNA Shield (Zymo Research Corporation). Viral RNA was extracted using a Quick-RNA Viral Kit (Zymo Research Corporation) according to the manufacturer's instructions, and cDNA was synthesized using ReverTra Ace (TOYOBO CO., LTD.) and a random primer (TOYOBO CO., LTD.).
Quantitative real-time PCR was performed with LightCycler 480 System (Roche) using THUNDERBIRD SYBR qPCR Mix (TOYOBO CO., LTD.) to amplify an orf1a gene. The relative amount of MHV was obtained from a standard curve created from a serial diluent solution of MHV genomic cDNA. The base sequences of the primers used are as follows.

T1 sequence (Q9JIQ8 254-490 limits assumed): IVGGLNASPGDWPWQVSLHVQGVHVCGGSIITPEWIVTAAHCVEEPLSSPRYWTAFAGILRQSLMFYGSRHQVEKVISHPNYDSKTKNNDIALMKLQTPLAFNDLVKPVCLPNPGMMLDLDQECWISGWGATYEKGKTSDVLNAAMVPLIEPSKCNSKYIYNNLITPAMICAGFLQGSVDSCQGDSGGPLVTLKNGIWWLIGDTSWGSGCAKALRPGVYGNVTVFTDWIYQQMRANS

Substance: Paraprevotella clara [JCM 14859]
- IgA heavy chain in faeces (IgA heavy chain [1]): remained
- amount of TMPRSS2 in the faeces (TMPRSS2): reduced
- IgA heavy chain in the faeces (IgA heavy chain [2]): larger amount
- liver pathology (hematoxylin and eosin) [3]: protected from the necrotizing liver pathology
- viral titers of MHV in liver and brain [3]: significantly prevented the spread of the virus
- survival after MHV infection ([3]; oral MHV 14 days after inoculation): prolonged survival
